# Test results reported in US11834640B2, “Device and uses thereof for treating diabetes” (Board of Regents, The University of Texas System, priority 2019, dated 2023).
# Experiments:
# Assay type in all cases: cell-based, mouse
# [1] = tested on: βTC-6 cells; assay: Calcium spiking frequency (Fluo-8) after 810 nm PBM exposure, pharmacologic studies
# Procedure: Cell Culture. […] Cell passage was performed weekly with 0.25% Trypsin-EDTA. Samples were prepared by seeding βTC-6 cells on glass coverslips in low glucose media. These samples were used for experimentation between days 2 through 5. All cells were incubated at 37° C. in a 5% CO2 environment.
# (§1) PBM Parameters. A Cytonsys (Austin, TX) 810 nm near-infrared laser was used to perform all experimentation. […] Herein, all βTC-6 samples were exposed to 810 nm for 1 minute with an irradiance of 150 mW/cm^2, resulting in a fluence of 9 J/cm^2. To measure the bulk temperature rise that was due to laser exposure, an Omega HH42A thermistor was used before and after irradiation.
# (§2) Live Cell Imaging. For calcium and mitochondrial superoxide (mROS) detection, the cells were stained with Fluo-8 (0.8 μM, Abcam, Cambridge, UK), Mitosox (5 μM, Thermo-Fisher, Waltham, MA) and 1 drop/mL of Nucblue (Thermo-Fisher, Waltham, MA) for detection of intracellular calcium, mROS, and nucleic acid, respectively. The fluorescent dye DAF-FM (5 μM, Thermo-Fisher) was used to detect and measure cytosolic nitric oxide (NO). Hanks balanced salt solution (HBSS) was used (H8264, Sigma, St. Louis, MO) unless stated otherwise. Samples were stained at 37° C. for 30 minutes before being washed and mounted onto the imaging chamber.
# Calcium Activity Analysis. Regions of interest (ROIs) were placed on individual cells using the nucleic acid staining and transferred to perform and calculate mean fluorescent intensity over time with background subtraction. Approximately 100 to 200 cells were monitored for each data point, and the results were averaged. A conservative moving average threshold (10 data points) with a 10% cutoff was used to determine a calcium spike. […] The active population was defined by the total number of active cells divided by the number of cells analyzed. The average spiking frequency of these active cells was then determined at each time point. Measurements were taken using Nikon Elements software and data analysis was carried out using Microsoft Excel. […]
# [2] = tested on: βTC-6 insulinoma cells; assay: Intracellular calcium rise (Fluo-8) after electric field exposure, blocking experiment; settings: verapamil 100 μM, incubated 30 minutes before 3 V/cm EF for 15 min, HBSS
# Procedure: Calcium labeling and depletion. Samples were washed with HBSS (Sigma) and incubated with 0.8 μM Fluo-8 (Abcam) for 30 minutes. NucBlue solution (Thermo) was added for 15 min in accordance to the manufacturer's recommended concentration to stain the nuclei. Cells were washed again and mounted onto the chamber. Changes in the Fluo-8 fluorescent intensity were monitored and recorded. Fluorescent images were acquired for 2 min at 5 s intervals with a 250 ms exposure time before and after the DCEF was applied. Image analysis was performed using the Nikon Elements image processor by identifying a ROI selection on selected nuclei with mean intensity of Fluo-8 over time. […]
# Calcium Fluorescent Microscopy. […] Measurements for calcium rise recorded a single static image before and after EF exposure, while calcium spiking was recorded over 2 minutes before and after EFS with a 5 second sampling interval.
# Calcium Image Analysis. For calcium rise, the mean intensity of clusters in the sample were measured at 0 minute (Pre) and 15 minute (Post) time points using Nikon Elements. Background subtraction was then performed and the percent change was determined by comparing the post-exposure to the pre-exposure mean intensities. […] The mean intensity over time was measured for both the pre and post imaging sessions. […]
# [3] = tested on: βTC-6 cells; assay: Mitochondrial superoxide (MitoSOX intensity) after 810 nm PBM exposure; settings: ascorbic acid 2.5 mM, 9 J/cm^2
# Procedure: as §1, with “experimentation. […] The energy density of 9 J/cm^2 was previously shown to have therapeutic effects on hepatic tissue in a diabetic state.” for “experimentation.”
# as §2
# Pharmacologic Studies. All drugs were added to the staining buffer. Samples were treated with each drug for 30 minutes before imaging. For L-type VGCC blocking, Verapamil (100 μM, V4629, Sigma) was applied. Capsazepine (10 μM, C191, Sigma) was added as a TRPV1 antagonist. […]
smiles,measurement,setting,value
NCCOB(c1ccccc1)c1ccccc1 [2-APB],calcium spiking frequency following PBM,"[1]; 2-APB 10 μM (FIG. 10B legend 20 μM), 30 minutes, 9 J/cm^2",significantly impede such an increase in the calcium spiking frequency by PBM
COc1ccc(CCN(C)CCCC(C#N)(c2ccc(OC)c(OC)c2)C(C)C)cc1OC (centres unmarked) [Verapamil],increase in intracellular calcium level in response to EF,[2],effectively blocked the increase in intracellular calcium level
"O=C1O[C@H]([C@@H](O)CO)C(O)=C1O [ascorbic acid, Ascorbic Acid]","calcium spiking frequency of active cells following PBM, AA-treated versus control","[1]; ascorbic acid 2.5 mM, 9 J/cm^2",no significant difference in the calcium spiking frequency analysis between the AA-treated and control cells until the 10-minute time point
same,MitoSOX intensity following PBM (superoxide),[3],significant reduction in the MitoSOX intensity
"O=C1CN(/N=C/c2ccc(-c3ccc([N+](=O)[O-])cc3)o2)C(O)=N1 [dantrolene, Dantrolene]","calcium spiking frequency following PBM, versus control","[1]; dantrolene 50 μM, 30 minutes, 9 J/cm^2, difference only noticeable at the 15-minute mark",decreased in comparison to the control
